Series [1] has as its system SH-SY5Y cells. Nature of the series: Cytotoxicity induced by cyclodextrins in SH-SY5Y cells (CCK-8). The protocol:
HPBCD oligomer was prepared by using hydroxypropyl-beta-cyclodextrin (HPBCD) monomers with a molar substitution value between 0.4 and 0.8. […] SH-SY5Y cells were maintained using DMEM containing 10% fetal bovine serum, 1% Penicillin-Streptomycin, and retinoic acid (50 μM) to induce differentiation into neuron-like cells. Media was changed total three times (1, 3, and 5 days post-seeding) and the cells were seeded for experiments on the next day. The cells were seeded in a 96-well plate at a density of 5×10^4 cells per well. On the next day, the cells were treated with each cyclodextrin at 2.5 mg/mL, 5 mg/mL, 10 mg/mL, and 20 mg/mL for 24 hours. Cellular viability was measured using Cell Counting Kit-8 (CCK-8) and measuring the absorbance at 450 nm.

The next series deals with TNF-α. Briefly: Aβ42 aggregate-induced inflammation, secreted TNF-α by ELISA in SH-SY5Y cells. The series is classed as cell-based. To be noted: Aβ42 25 μM, 24 hours, cyclodextrins 2.5 mg/mL, FIG. 12. Here is the method:
The pre-aggregated Aβ42 was treated at a concentration of 25 μM for 24 hours with or without cyclodextrins and enzyme-linked immunosorbent assay (ELISA) was performed to measure inflammatory cytokines secreted by the cells. […] GCD oligomer was prepared by using gamma-cyclodextrin (GCD) monomers.

Series [2] deals with SH-SY5Y cells. Briefly: Cytotoxicity induced by pre-aggregated Aβ42 in SH-SY5Y cells (CCK-8). The series is classed as cell-based. To be noted: Aβ42 25 μM, 48 hours, cyclodextrins 1, 2.5 and 5 mg/mL, FIG. 7. The protocol:
(§1) Amyloid beta 1-42 (Aβ42) was dissolved in distilled water at a concentration of 1 mM, vortexed for 30 seconds, and then incubated at 37° C. for 7 days to induce pre-aggregation. […] ARPE-19 cells were maintained using DMEM/F12 media containing 10% fetal bovine serum, 1% Penicillin-Streptomycin, 1% HEPES, and 2.5 mM L-Glutamine. […] On the next day, the cells were treated with pre-aggregated Aβ42 at a concentration of 25 μM for 48 hours in the presence of cyclodextrins (1, 2.5, and 5 mg/mL).
Then, we investigated the effects of molecular weights of gamma-cyclodextrin oligomers on the cytotoxicity induced by protein aggregates. […] The SH-SY5Y cells were treated with pre-aggregated Aβ42 for 48 hours in the presence of cyclodextrins (5 mg/mL).

In a further series the test system is ARPE-19 cells. Nature of the series: Cytotoxicity induced by pre-aggregated Aβ42 in ARPE-19 cells (CCK-8). The series is classed as cell-based. The following applies: ARPE-19, Aβ42 25 μM, 48 hours, cyclodextrins 1, 2.5 and 5 mg/mL, FIG. 7. The protocol:
as §1

Series [3] concerns SH-SY5Y cells. Briefly: Cytotoxicity induced by pre-aggregated alpha-synuclein in SH-SY5Y cells. The series is classed as cell-based. To be noted: αSyn 1 μM, 24 hours, cyclodextrins 1, 2.5 and 5 mg/mL, FIG. 8. Here is the method:
as §1
Using the SH-SY5Y cells, the cytotoxicity of aggregated alpha-synuclein (αSyn) was evaluated. The cells were treated with pre-aggregated αSyn (1 μM) for 24 hours in the presence of cyclodextrins (1, 2.5, and 5 mg/mL).

Series [4] has as its system SH-SY5Y cells. Nature of the series: Plasma membrane cholesterol extraction in SH-SY5Y cells. The following applies: cyclodextrin 20 mg/mL, 37° C., 1 hour, FIG. 11. It is filed as cell-based. The protocol: Since cyclodextrin-mediated cytotoxicity is known to be caused by excessive plasma membrane cholesterol extraction and consequential membrane disruption, we investigated cholesterol extraction from the cells. […] The next day, the cells treated with cyclodextrins at a concentration of 20 mg/mL at 37° C. for 1 hour. The supernatant was collected, centrifuged at a rate of 14,000 g for 30 minutes to remove cell debris and microvesicles, and then the cholesterol concentration in the supernatant was quantified using a Cholesterol Quantification Kit (Sigma Aldrich).

`CC(O)COC[C@H]1O[C@@H]2O[C@H]3[C@H](O)[C@@H](O)[C@@H](O[C@H]4[C@H](O)[C@@H](O)[C@@H](O[C@H]5[C@H](O)[C@@H](O)[C@@H](O[C@H]6[C@H](O)[C@@H](O)[C@@H](O[C@H]7[C@H](O)[C@@H](O)[C@@H](O[C@H]8[C@H](O)[C@@H](O)[C@@H](O[C@H]1[C@H](O)[C@H]2O)O[C@@H]8COCC(C)O)O[C@@H]7COCC(C)O)O[C@@H]6COCC(C)O)O[C@@H]5COCC(C)O)O[C@@H]4COCC(C)O)O[C@@H]3COCC(C)O` (stereo partly drawn) [HPBCD, hydroxypropyl-beta-cyclodextrin] returned a cellular viability in the series with SH-SY5Y cells [1] (human, 24 h, 20 mg/mL) of 43.25%. The “level of secreted TNF-α” value with TNF-α is on record as “did not show significant effect”.
For the compound “hydroxypropyl-gamma-cyclodextrin [HPGCD]”, the “effect on cytotoxicity induced by Aβ42 aggregate” value in the series with SH-SY5Y cells [2] and with ARPE-19 cells was “did not show such effect” in each case. Besides, the “effect on cytotoxicity induced by αSyn aggregate” value with SH-SY5Y cells [3] is recorded as “less effective”. The cellular viability in the series on SH-SY5Y cells [1] (SH-SY5Y, cyclodextrin 20 mg/mL, 24 hours, FIG. 10) worked out at 81.38%. Moreover, the “level of plasma membrane cholesterol extraction” value in the series with SH-SY5Y cells [4] was “no significance compared to PBS”. The “level of secreted TNF-α” value with TNF-α is listed as “did not show significant effect”.
